The results in this text go back to paper PMC6263113 (Journal of Enzyme Inhibition and Medicinal Chemistry, 2018).

Data set [1] has as its target T1, AChE (Rattus norvegicus, UniProt P37136).
T1 sequence (P37136 32-614): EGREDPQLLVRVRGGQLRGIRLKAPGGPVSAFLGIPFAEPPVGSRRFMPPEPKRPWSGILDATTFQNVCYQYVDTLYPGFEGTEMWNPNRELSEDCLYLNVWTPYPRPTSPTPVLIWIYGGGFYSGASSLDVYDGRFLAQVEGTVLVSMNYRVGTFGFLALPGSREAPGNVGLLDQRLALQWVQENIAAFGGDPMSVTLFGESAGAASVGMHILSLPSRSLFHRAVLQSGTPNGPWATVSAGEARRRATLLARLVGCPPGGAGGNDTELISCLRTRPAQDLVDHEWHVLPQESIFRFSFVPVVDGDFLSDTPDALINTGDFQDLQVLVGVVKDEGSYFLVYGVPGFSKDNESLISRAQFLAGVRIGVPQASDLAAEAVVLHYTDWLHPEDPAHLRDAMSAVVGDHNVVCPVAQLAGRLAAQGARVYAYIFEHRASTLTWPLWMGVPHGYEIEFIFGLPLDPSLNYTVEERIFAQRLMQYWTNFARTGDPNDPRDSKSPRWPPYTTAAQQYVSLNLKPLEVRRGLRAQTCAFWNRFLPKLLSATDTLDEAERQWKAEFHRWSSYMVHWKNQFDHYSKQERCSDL
Briefly: In vitro AChE activity in rat hippocampus homogenate. The format is biochemical.

Data set [2] concerns MRC-5 (human fibroblast). As to the kind of experiment: Cytotoxicity in fibroblast culture by SRB test. It counts as cell-based. Particulars: 24 h. On the technique in general: In SRB staining, fixed cells bind dye roughly in proportion to their protein.
Data set [3] concerns the target T1, AChE. Briefly: In vitro AChE activity in rat cerebral cortex homogenate. It counts as biochemical. Particulars: read-out: inhibition of AChE activity.
The mark [4] stands for this setting: read-out: inhibition of AChE activity.

pIC50: −log10 of the molar value. Entries after “also recorded” stand apart in the source; their conditions may differ.

Regarding `O=C1c2ccccc2SC(c2ccc(F)cc2)N1CCCN1CCCCC1` (stereo not drawn) [5Bf, 2-(4-fluorophenyl)-3-(3-(piperidin-1-yl)propyl)-2,3-dihydro-4H-benzo[e][1,3]thiazin-4-one], in data set [1], the pIC50 (in general, the negative decadic logarithm of the IC50, by convention in mol/L) was 4.21.

In turn, `O=C1c2ccccc2SC(c2ccc([N+](=O)[O-])cc2)N1CCN1CCCCC1` (stereo not drawn) [5Cd, 2-(4-nitrophenyl)-3-(2-(piperidin-1-yl)ethyl)-2,3-dihydro-4H-benzo[e] [1,3]thiazin-4-one] had a pIC50 in data set [1] of 3.92. For the same compound, in data set [2] (50 µM (lowest concentration tested)), the “cytotoxicity (cell proliferation vs DMSO control)” value is reported as “showed toxicity”.

As for `O=C1c2ccccc2SC(c2ccc([N+](=O)[O-])cc2)N1CCCN1CCCCC1` (stereo not drawn) [5Bd, 2-(4-nitrophenyl)-3-(3-(piperidin-1-yl)propyl)-2,3-dihydro-4H-benzo[e] [1,3]thiazin-4-one], in data set [1], the pIC50 is 4.40. Besides, the “cytotoxicity (cell proliferation vs DMSO control)” value in data set [2] (100 µM) is “no cytotoxicity; also recorded: noncytotoxic”. For the same compound, the “cytotoxicity in human fibroblast cell (overall statement)” value in data set [2] was “low cytotoxicity”.

In the case of `O=C1c2ccccc2SC(c2ccc([N+](=O)[O-])cc2)N1CCN1CCOCC1` (stereo not drawn) [5Ad, 3-(2-morpholinoethyl)-2-(4-nitrophenyl)-2,3-dihydro-4H-benzo[e][1,3]thiazin-4-one], the pIC50 in data set [1] was 4.15. Moreover, the inhibition (commonly the percentage by which the read-out fell short of the control) at 100 µM in data set [1] (setting [4]) turned out to be 46.4%.

In the case of `O=C1c2ccccc2SC(c2ccccc2)N1CCCN1CCCCC1` (stereo not drawn) [5Bb, 2-phenyl-3-(3-(piperidin-1-yl)propyl)-2,3-dihydro-4H-benzo[e][1,3]thiazin-4-one], in data set [1], the pIC50 was 4.40. Also, the inhibition at 50 µM in data set [1] (setting [4]) came out at 50%. Besides, the inhibition at 10 µM in data set [3] came out at 47.2%.

Turning to `CCCCC1Sc2ccccc2C(=O)N1CCCN1CCCCC1` (stereo not drawn) [5Ba, 2-butyl-3-(3-(piperidin-1-yl)propyl)-2,3-dihydro-4H-benzo[e][1,3]thiazin-4-one], in data set [1], the negative-log IC50 (pIC50) was 4.13. Moreover, in data set [1] (setting [4]), the inhibition at 100 µM is 46.2%. Besides, the “cytotoxicity (cell proliferation vs DMSO control)” value in data set [2] (100 µM) was “noncytotoxic”. For the same compound, the inhibition at 10 µM in data set [3] was 27.1%.
